The target in data set [1] is T1, volume regulated anion channel (VRAC), LRRC8A and LRRC8D (Homo sapiens, UniProt Q7L1W4+Q8IWT6).
T1 sequence (Q8IWT6 1-810): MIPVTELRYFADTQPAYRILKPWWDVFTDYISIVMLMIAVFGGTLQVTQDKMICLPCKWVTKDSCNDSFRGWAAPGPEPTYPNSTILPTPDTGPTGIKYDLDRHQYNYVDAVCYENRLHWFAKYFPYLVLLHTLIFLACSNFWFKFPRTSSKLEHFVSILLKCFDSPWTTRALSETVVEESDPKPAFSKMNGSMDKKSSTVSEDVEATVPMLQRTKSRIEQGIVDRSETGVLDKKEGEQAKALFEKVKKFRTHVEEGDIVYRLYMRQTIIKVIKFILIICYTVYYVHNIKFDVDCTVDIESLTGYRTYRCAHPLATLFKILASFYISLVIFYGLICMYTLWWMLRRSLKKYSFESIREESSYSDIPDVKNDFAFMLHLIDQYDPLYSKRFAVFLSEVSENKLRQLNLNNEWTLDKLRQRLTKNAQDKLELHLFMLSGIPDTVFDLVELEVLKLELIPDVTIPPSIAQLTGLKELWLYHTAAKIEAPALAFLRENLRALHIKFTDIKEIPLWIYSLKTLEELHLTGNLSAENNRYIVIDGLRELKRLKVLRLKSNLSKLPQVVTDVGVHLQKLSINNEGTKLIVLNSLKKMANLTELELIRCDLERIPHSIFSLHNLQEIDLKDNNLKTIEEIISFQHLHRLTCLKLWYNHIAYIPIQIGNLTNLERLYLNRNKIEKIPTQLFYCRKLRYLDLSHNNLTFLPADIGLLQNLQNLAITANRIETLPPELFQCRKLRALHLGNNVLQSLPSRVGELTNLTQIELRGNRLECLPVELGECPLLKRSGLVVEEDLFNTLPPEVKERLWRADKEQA
T1 sequence (Q7L1W4 1-858): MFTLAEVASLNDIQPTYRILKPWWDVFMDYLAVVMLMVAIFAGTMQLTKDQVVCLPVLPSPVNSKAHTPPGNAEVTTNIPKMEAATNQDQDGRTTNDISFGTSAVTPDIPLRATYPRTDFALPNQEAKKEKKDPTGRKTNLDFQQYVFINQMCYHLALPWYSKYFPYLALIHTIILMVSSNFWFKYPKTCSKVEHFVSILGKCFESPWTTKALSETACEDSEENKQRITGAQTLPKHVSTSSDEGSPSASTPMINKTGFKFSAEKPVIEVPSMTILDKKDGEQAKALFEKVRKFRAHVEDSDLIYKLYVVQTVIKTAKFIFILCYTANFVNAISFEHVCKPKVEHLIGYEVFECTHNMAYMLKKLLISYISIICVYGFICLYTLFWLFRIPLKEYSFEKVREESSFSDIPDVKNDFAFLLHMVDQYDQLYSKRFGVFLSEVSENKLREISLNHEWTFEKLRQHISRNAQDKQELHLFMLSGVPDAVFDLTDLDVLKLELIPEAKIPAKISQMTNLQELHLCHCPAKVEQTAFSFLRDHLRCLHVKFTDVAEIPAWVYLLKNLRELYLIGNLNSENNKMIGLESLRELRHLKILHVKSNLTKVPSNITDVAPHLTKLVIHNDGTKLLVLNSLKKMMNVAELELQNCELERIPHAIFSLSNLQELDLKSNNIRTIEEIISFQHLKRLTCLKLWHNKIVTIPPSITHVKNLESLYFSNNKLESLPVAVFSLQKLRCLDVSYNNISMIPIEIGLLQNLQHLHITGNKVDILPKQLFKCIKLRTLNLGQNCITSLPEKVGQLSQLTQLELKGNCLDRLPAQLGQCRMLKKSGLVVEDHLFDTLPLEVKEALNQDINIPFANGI
As to conditions: as reported; cited from earlier work.

The conditions of data set [2]: cited from earlier work.
In a further data set the test system is KU1919-GemCis cells. Briefly: Metabolomics of intracellular taurine. The class given is cell-based, human. As to conditions: KU1919-GemCis cells with knockdown of NPEPPS, 10 μM cisplatin. On the procedure:
Given that VRACs transport cisplatin and carboplatin and finding NPEPPS in complex with VRAC subunits (FIGS. 4C-4D), NPEPPS may be a negative regulator of VRAC activity, consequently reducing import of intracellular cisplatin. Thus, the impact of NPEPPS on osmolytes known to be transported through VRACs was assessed.
Metabolomics. Sample preparation. Cell lines were cultured for several passages in IMDM+10% FBS (IMDM10). Prior to experiment, cells were cultured in IMDM10 to ˜80% confluence and then dissociated. For dissociation, cells were washed once with room temperature PBS and then incubated with PBS+0.05% Trypsin-EDTA for 10-15 minutes. Cells were neutralized with IMDM10 and then fully dissociated by gentle pipetting. After dissociation, cells were counted by Trypan blue staining and then replated at 1×10^6 cells. 24 hours after plating, cells were treated with either IMDM10 or IMDM10+10 μM cisplatin. Day 0 cell cultures were immediately processed for metabolomics analysis. […] Cells were suspended in PBS, centrifuged a second time, and then resuspended in PBS and counted. […]
Data generation and analysis. […] Supernatants were clarified by centrifugation (10 minutes, 18,000 g, 4° C.) and 10 μL analyzed using a Thermo Vanquish UHPLC coupled to a Thermo Q Exactive mass spectrometer. […]

`N.N.[Cl][Pt][Cl]` [cisplatin]: the “share of intracellular cisplatin transported through VRAC channels” value in data set [1] is on record as 50-70%. Also, in data set [2], the “maximum concentration of cisplatin in patients” value is 14 µM. Besides, the “intracellular levels of taurine” value with KU1919-GemCis cells is “reduced even further”.
